Test [1] has as its target T1, high affinity zinc uptake system (Zrt1p) (Saccharomyces cerevisiae, UniProt P32804).
T1 construct: endogenous in cells; host or cells: S. cerevisiae DY1457 (wild type, zinc-limited) and ZHY2 (zrt2); one kinetic value comes from ZHY1 carrying pOE1 (ZRT1 ORF under the GAL1 promoter)
Nature of the test: 65Zn uptake assay in yeast, high affinity zinc uptake system. The test is classed as cell-based. The settings on record: for effect on zinc uptake by the high affinity system: 20 μM added metal, zinc-limited wild type. The method, then:
(§1) Zinc uptake assays were performed as described previously for iron uptake (Eide et al. J. Biol. Chem. 267:20774-20781) except that ^65ZnCl2 (Amersham Corp., Arlington Heights, Ill.) and LZM-EDTA were substituted for ^59FeCl3 and LIM-EDTA. Cells were incubated at 30° C. with ^65Zn for five minutes, filtered, and washed with 10 ml ice-cold SSW. Cell-associated radioactivity was measured by liquid scintillation. Kinetic values were derived using KinetAsyst software (IntelliKinetics, Princeton, N.J.). Zinc accumulation was measured in cells grown in LZM medium supplemented with […] ^65Zn plus nonradioactive zinc to the indicated final concentration. Aliquots (0.5 ml) were filtered, washed with 10 ml ice-cold SSW, and counted by liquid scintillation. b-galactosidase activity was assayed as described by Guarente (Guarante, L. (1983) Methods Enzymol101:181-191).
(§2) Zinc uptake assays were performed as described previously for iron uptake (Eide et al. (1992) J. Biol. Chem. 267:20774-20781) except that ^65ZnCl2 (Amersham) and LZM-EDTA were substituted for ^59FeCI3 and LIM-EDTA, respectively. Cells were incubated for 5 minutes in LZM-EDTA plus the indicated concentration of ^65Zn, collected on glass fiber filters (Schleicher and Schuell), washed with 10 ml ice-cold SSW (1 mM EDTA, 20 mM trisodium citrate, 1 mM KH2PO4, 1 mM CaCl2, 5 mM MgSO4, 1 mM NaCl pH 4.2), and cell-associated radioactivity was measured by liquid scintillation counting. Cells were starved for glucose by incubating them in LZM-EDTA prepared without glucose for one hour at 30° C. prior to assay. Michaelis-Menten kinetic values were determined using […] software (Intellikinetics, Princeton, N.J.). Stock solutions of the chloride salts of Co, Cu, Mg, Mn, and Ni were prepared in distilled water at a concentration of 100 mM. The nonradioactive ZnCl2 stock was prepared at 100 mM in 0.02 N HCl and the FeCl3 stock was prepared at 50 mM in 0.1 N HCl. The statistical significance of the differences of values relative to controls was determined with one-way analysis of variance (ANOVA) followed by a Dunnett multiple comparison test. β-galactosidase activity was assayed in cells harvested at an OD600 of 0.5-2.0 as described by Guarente (Guarente, L. (1983) Methods Enzymol. 101:181-191) and activity is expressed as the change in absorbance at 420 nm×1000 divided by (min×ml of culture used×OD600 of the culture). Cell-associated zinc was measured in parallel cultures supplemented with tracer amounts of ^65Zn (10 μM) and nonradioactive zinc to the indicated final concentration. Aliquots (0.5 ml) were filtered, washed with 10 ml ice-cold SSW, and radioactivity measured by liquid scintillation.
(§3) To determine if ZRT1 plays a role in zinc uptake, the biochemical properties of this process in wild type cells were first characterized. […] Wild type (FIG. 10, DY1457, squares) and zrt1 mutant (FIG. 10, ZHY1, circles) cells were grown to exponential phase in zinc-limited (open symbols, FIG. 10) and zinc-replete (FIG. 10, closed symbols) media and assayed for zinc uptake rate over a range ZnSO4 concentrations. Zinc-limited media was LZM+10 μM zinc for the wild type and LZM+500 μM zinc for the mutant. Zinc-replete conditions were LZM+1000 μM for both strains. ZHY1(pOE1) cells (FIG. 10, triangles) were grown in zinc-replete SDgal medium.
(§4) Mutant zrt1 (ZHY1) cells were grown in LZM supplemented with 1 mM ZnCl2. Cells were incubated with 10 μM ^65Zn for the indicated times at either […]

The target in test [2] is T2, low affinity zinc uptake system (Zrt2p) (Saccharomyces cerevisiae, UniProt Q12436).
T2 construct: endogenous in cells; host or cells: S. cerevisiae ZHY1 (zrt1::LEU2) and zinc-replete DY1457; some values come from ZHY1 carrying pMC4 (multicopy genomic ZRT2) or pOE2 (ZRT2 ORF under GAL1)
T2 sequence (Q12436 whole entry): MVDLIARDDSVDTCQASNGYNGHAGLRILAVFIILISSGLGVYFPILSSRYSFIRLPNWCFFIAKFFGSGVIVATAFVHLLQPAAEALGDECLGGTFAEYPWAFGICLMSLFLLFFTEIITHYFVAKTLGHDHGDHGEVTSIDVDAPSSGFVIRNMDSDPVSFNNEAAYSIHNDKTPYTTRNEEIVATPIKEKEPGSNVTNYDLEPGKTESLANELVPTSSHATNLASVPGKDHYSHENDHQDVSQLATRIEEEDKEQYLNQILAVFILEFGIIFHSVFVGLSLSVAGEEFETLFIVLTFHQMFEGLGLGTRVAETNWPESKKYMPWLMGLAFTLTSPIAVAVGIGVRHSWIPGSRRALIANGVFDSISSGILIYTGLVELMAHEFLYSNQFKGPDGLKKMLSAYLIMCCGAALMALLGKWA
The test is classed as cell-based. The settings on record: for effect on zinc uptake by the low affinity system / uptake rate of radioactive zinc, % of the control rate: 200 μM added metal, zrt1 mutant cells; for inhibition of pMC4- and pOE2-dependent zinc uptake activity: ZRT2 overexpressing zrt1 cells; for zinc accumulation: 30° C., 10 μM 65Zn. The procedure: as §1, §2, §3, §4

Where [3] appears, read: zrt1 cells grown in SD glucose supplemented with 2 mM ZnCl2.

Where two headings read alike, the source gives them in different places.

T1 sequence (P32804 whole entry): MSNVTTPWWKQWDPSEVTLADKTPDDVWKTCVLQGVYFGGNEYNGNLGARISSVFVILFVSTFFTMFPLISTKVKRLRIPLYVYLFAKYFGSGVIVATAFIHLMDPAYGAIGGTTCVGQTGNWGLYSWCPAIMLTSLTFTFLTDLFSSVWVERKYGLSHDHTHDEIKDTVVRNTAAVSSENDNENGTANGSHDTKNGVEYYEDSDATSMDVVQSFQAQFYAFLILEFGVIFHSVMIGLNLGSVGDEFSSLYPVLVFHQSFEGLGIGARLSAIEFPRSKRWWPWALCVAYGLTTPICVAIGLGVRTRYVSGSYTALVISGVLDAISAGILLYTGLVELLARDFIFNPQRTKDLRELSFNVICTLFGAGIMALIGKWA

As for `[Cl][Ni][Cl]` [Ni], in test [1] (2 μM 65Zn, five minutes), the “effect on zinc uptake by the high affinity system” value was “unaffected”. The “effect on zinc uptake by the low affinity system” value in test [2] (20 μM 65Zn, five minutes) is “did not diminish zinc uptake”.

On to `[Cl][Cu][Cl]` [Cu], for which the “effect on zinc uptake by the high affinity system” value in test [1] (2 μM 65Zn, five minutes) was “inhibitory”. For the same compound, in test [2] (20 μM 65Zn, five minutes), the “uptake rate of radioactive zinc, % of the control rate” value (“uptake rate … % of the control rate” for short) was found to be 32%. For the same compound, the “inhibition of pMC4- and pOE2-dependent zinc uptake activity” value in test [2] is recorded as “inhibited”.

In the case of `[Zn+2]` [zinc], the “control rate of zinc uptake” value in test [1] (2 μM 65Zn, five minutes, wild type grown in LZM + 10 μM ZnCl2, no other metal) was 47 pmol/min/10^6 cells; in test [2] (20 μM 65Zn, five minutes, zrt1 (ZHY1) grown in LZM + 1 mM ZnCl2, no other metal) it was 0.9 pmol/min/10^6 cells. The “effect on zinc uptake by the high affinity system” value in test [1] (2 μM 65Zn, five minutes) is “inhibitory”. The “Vmax of zinc uptake” value was 30 pmol/min/10^6 cells in test [1] (ZHY1(pOE1), ZRT1 expressed from GAL1 promoter, zinc-replete cells, galactose); 80 pmol/min/10^6 cells in test [1] (wild type DY1457, zinc-limited cells (LZM+10 μM zinc)); 2 pmol/min/10^6 cells in test [2] (zinc-replete cells); 1-2 pmol/min/10^6 cells in test [2] (zrt1 mutant cells grown in zinc-limiting and zinc-replete media). For the same compound, the Km in test [1] (ZHY1(pOE1), ZRT1 expressed from GAL1 promoter, zinc-replete cells, galactose, read-out: apparent Km of zinc uptake) is 0.6 ± 0.1 µM; in test [1] (calculated free zinc, read-out: apparent Km of the high affinity system, calculated free zinc concentration), ~0.01 µM; in test [1] (total zinc, read-out: apparent Km of the high affinity system, total zinc) it was 1 µM; in test [1] (wild type DY1457, zinc-limited cells (LZM+10 μM zinc), read-out: apparent Km of zinc uptake) it was 1 ± 0.1 µM; in test [1] (wild type, low growth medium [Zn] (LZM + 10 μM ZnCl2), total zinc, mean ± SE, read-out: Km) it was 0.52 ± 0.07 µM; in test [1] (zrt2, high growth medium [Zn] (LZM + 1.5 mM ZnCl2), total zinc, mean ± SE, read-out: Km), 0.4 ± 0.04 µM. Further, the Km in test [1] (zrt2, low growth medium [Zn], total zinc, mean ± SE, read-out: Km) was 0.85 ± 0.18 µM; in test [2] (ZHY1 (zrt1) with plasmid pMC4, SD glucose, total zinc, mean ± SE, read-out: Km) it was 8 ± 0.4 µM; in test [2] (ZHY1 (zrt1) with plasmid pOE2 (GAL1-ZRT2), SD galactose, total zinc, mean ± SE, read-out: Km), 3.6 ± 0.1 µM; in test [2] (ZHY1 (zrt1) with vector (YEp24, control for pMC4), SD glucose, total zinc, mean ± SE, read-out: Km), 9.5 ± 0.8 µM; in test [2] (ZHY1 (zrt1) with vector (pRS316-GAL1, control for pOE2), SD galactose, total zinc, mean ± SE, read-out: Km), 10 ± 1 µM; in test [2] (calculated free zinc, read-out: apparent Km of the low affinity system, free zinc), ~0.1 µM. Further, the Km in test [2] (total zinc, read-out: apparent Km of the low affinity system) came to 10 µM; in test [2] (wild type, high growth medium [Zn] (LZM + 1.5 mM ZnCl2), total zinc, mean ± SE, read-out: Km), 15 ± 3 µM; in test [2] (wild type, zinc-replete cells (LZM+1000 μM), read-out: apparent Km of zinc uptake), 10 ± 1 µM; in test [2] (zrt1, high growth medium [Zn], total zinc, mean ± SE, read-out: Km) it was 10 ± 1 µM; in test [2] (zrt1 mutant cells grown in zinc-limiting and zinc-replete media, read-out: apparent Km of zinc uptake) it was 10 ± 1 µM. Also, the Vmax came to 76 ± 2 pmol/min/10^6 in test [1] (wild type, low growth medium [Zn] (LZM + 10 μM ZnCl2), mean ± SE); 0.31 ± 0.01 pmol/min/10^6 in test [1] (zrt2, high growth medium [Zn] (LZM + 1.5 mM ZnCl2), mean ± SE); 60 ± 2 pmol/min/10^6 in test [1] (zrt2, low growth medium [Zn], mean ± SE); 28 ± 1 pmol/min/10^6 in test [2] (ZHY1 (zrt1) with plasmid pMC4, SD glucose, mean ± SE); 17 ± 2 pmol/min/10^6 in test [2] (ZHY1 (zrt1) with plasmid pOE2 (GAL1-ZRT2), SD galactose, mean ± SE); 2.2 ± 0.1 pmol/min/10^6 in test [2] (ZHY1 (zrt1) with vector (YEp24, control for pMC4), SD glucose, mean ± SE). Moreover, the Vmax in test [2] (ZHY1 (zrt1) with vector (pRS316-GAL1, control for pOE2), SD galactose, mean ± SE) was 2.0 ± 0.1 pmol/min/10^6; in test [2] (wild type, high growth medium [Zn] (LZM + 1.5 mM ZnCl2), mean ± SE), 0.60 ± 0.03 pmol/min/10^6; in test [2] (zrt1, high growth medium [Zn], mean ± SE) it was 0.52 ± 0.04 pmol/min/10^6. Also, in test [2] (20 μM 65Zn, five minutes), the “uptake rate … % of the control rate” value is listed as “approximately 10%”. Besides, in test [2] (ZHY1 (zrt1) with pMC4 vs YEp24, SD glucose, all 65Zn concentrations tested), the “rate of zinc uptake of pMC4 transformants relative to vector control” value was “approximately 15 fold”. Besides, the zinc accumulation result in test [2] (glucose-starved zrt1 cells, five minutes) was “no detectable zinc accumulation”; in test [2] (zrt1 cells incubated with glucose, five minutes), 3.7 pmol/10^6 cells. In addition, the zinc uptake rate is reported as 0.12 pmol/min/106 cells in test [2] (setting [3]) and 1.7 pmol/min/10^6 cells in test [2] (zrt1 cells grown in zinc-replete SD glucose, assayed at 10, M 65Zn). Moreover, the “zinc uptake rate relative to untreated cells” value in test [2] (setting [3]) stood at 7%.

As to `[Cl][Fe]([Cl])[Cl]` [Fe(III)], the “effect on zinc uptake by the high affinity system” value in test [1] (2 μM 65Zn, five minutes) is listed as “unaffected”. In addition, the “effect on zinc uptake by the low affinity system” value in test [2] (20 μM 65Zn, five minutes) is recorded as “did not diminish zinc uptake”.

Turning to `[Fe+2]` [Fe(II)], the “effect on zinc uptake by the high affinity system” value in test [1] (2 μM 65Zn, five minutes) is given as “inhibitory”. For the same compound, the “uptake rate … % of the control rate” value in test [2] (20 μM 65Zn, five minutes) worked out at 79%. For the same compound, in test [2], the “inhibition of pMC4- and pOE2-dependent zinc uptake activity” value was “inhibited”.

As for `[Cl][Mn][Cl]` [Mn], the “effect on zinc uptake by the high affinity system” value in test [1] (2 μM 65Zn, five minutes) is “unaffected”. Further, in test [2] (20 μM 65Zn, five minutes), the “effect on zinc uptake by the low affinity system” value is given as “did not diminish zinc uptake”.

As for `[Cl-].[Cl-].[Co+2]` [Co], the “effect on zinc uptake by the high affinity system” value in test [1] (2 μM 65Zn, five minutes) is listed as “unaffected”. The “effect on zinc uptake by the low affinity system” value in test [2] (20 μM 65Zn, five minutes) was “did not diminish zinc uptake”.

The values are drawn from patent publication US6590140B1, “Metal-regulated transporters and uses therefor” (Trustees of Dartmouth College, priority 1996, dated 2003).
